Measurements from US11464770B2, “Anticancer pharmaceutical composition” (NATIONAL CANCER CENTER, priority 2016, dated 2022).
Like-named read-outs stand apart in the source and are kept apart here.

Assays:
[1] = system: bladder cancer cell lines; assay: Cell based assay, cell viability (CellTiter-Glo), bladder cancer cell lines; details: 72 hours treatment, 0 to 2 μM, CellTiter-Glo
Outline: (§1)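 Cell lines seeded, cultured 24 hours, then exposed to compound at final 0 to 2 μM. After a further 72 hours, viability measured by ATP-detection luminescence (CellTiter-Glo).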

[2] = system: blood cancer cell lines (e.g. HL-60, Jurkat, Raji, Ramos, Daudi, MOLT-4); assay: Cell based assay, cell viability (CellTiter-Glo), blood cancer cell lines; details: Homo sapiens
Outline: as §1

[3] = system: cervical carcinoma cell lines; assay: Cell based assay, cell viability (CellTiter-Glo), cervical carcinoma cell lines; details: Homo sapiens; HeLa cells
[4] = 253J cells, read-out: IC50, bladder cancer cell line 253J
[5] = 5637 cells, read-out: IC50, bladder cancer cell line 5637
[6] = Homo sapiens, T-24, T24 cells, read-out: IC50, bladder cancer cell line T24
[7] = Homo sapiens, J82 cells, read-out: IC50, bladder cancer cell line J82
[8] = MV4-11, blood cancer cell line MV-4-11, 72 hours, read-out: IC50, MV-4-11
[9] = blood cancer cell line Daudi, 72 hours, read-out: IC50, Daudi
[10] = blood cancer cell line HL-60, 72 hours, read-out: IC50, HL-60
[11] = blood cancer cell line Jurkat, 72 hours, read-out: IC50, Jurkat
[12] = blood cancer cell line MOLT-4, 72 hours, read-out: IC50, MOLT-4
[13] = blood cancer cell line Raji, 72 hours, read-out: IC50, Raji
[14] = blood cancer cell line Ramos (RA 1), 72 hours, read-out: IC50, Ramos (RA 1)
[15] = blood cancer cell line U-937, 72 hours, read-out: IC50, U-937
[16] = Homo sapiens, UMUC3, UM-UC-3 cells, read-out: IC50, bladder cancer cell line UM-UC-3
[17] = Homo sapiens, KU-19-19 cells, read-out: IC50, bladder cancer cell line KU-19-19
[18] = MBT-2 cells, read-out: IC50, bladder cancer cell line MBT-2

Row | SMILES | IC50 [1, 4] | IC50 [1, 5] | IC50 [1, 6] | IC50 [1, 7] | IC50 [2, 8] | IC50 [2, 9] | IC50 [2, 10] | IC50 [2, 11] | IC50 [2, 12] | IC50 [2, 13] | IC50 [2, 14] | IC50 [2, 15] | IC50 [3] | IC50 [1, 16] | IC50 [1, 17] | IC50 [1, 18]
1 | CC(=O)c1c([S+]([O-])Cc2ccc(NS(C)(=O)=O)cc2)[nH]c2c(Br)ccc(Cl)c2c1=O (stereo not shown) [Compound 103, N-(4-(((3-acetyl-8-bromo-5-chloro-4-oxo-1,4-dihydroquinolin-2-yl)sulfinyl)methyl)phenyl)methane-sulfonamide] | > 2000 nM | > 2000 nM | > 2000 nM | > 2000 nM | > 2000 nM | > 2000 nM | > 2000 nM | > 2000 nM | > 2000 nM | > 2000 nM | > 2000 nM | > 2000 nM | > 2000 nM | – | – | –
2 | Cc1cc(C[S+]([O-])c2[nH]c3c(Cl)ccc(Cl)c3c(=O)c2C(=O)C2CC2)no1 (stereo not shown) [Compound 97, 5,8-dichloro-3-(cyclopropanecarbonyl)-2-(((5-methylisoxazol-3-yl)methyl)sulfinyl)quinolin-4(1H)-one] | – | 1910 nM | – | > 2000 nM | 800 nM | 1040 nM | > 2000 nM | 510 nM | 770 nM | 1290 nM | 700 nM | 1350 nM | > 2000 nM | – | – | –
3 | Cc1cc(C[S+]([O-])c2[nH]c3c(Br)ccc(Cl)c3c(=O)c2C(=O)C2CC2)no1 (stereo not shown) [Compound 96, 8-bromo-5-chloro-3-(cyclopropanecarbonyl)-2-(((5-methylisoxazol-3-yl)methyl)sulfinyl)quinolin-4(1H)-one] | – | > 2000 nM | 1660 nM | > 2000 nM | 1160 nM | 1370 nM | 1650 nM | 590 nM | > 2000 nM | 1660 nM | 1060 nM | > 2000 nM | > 2000 nM | – | – | –
4 | CC(=O)c1c(SCC#N)[nH]c2c(Br)ccc(Cl)c2c1=O [Compound 66, 2-((3-acetyl-8-bromo-5-chloro-4-oxo-1,4-dihydroquinolin-2-yl)thio)acetonitrile] | > 2000 nM | > 2000 nM | > 2000 nM | > 2000 nM | > 2000 nM | > 2000 nM | > 2000 nM | > 2000 nM | > 2000 nM | > 2000 nM | > 2000 nM | > 2000 nM | > 10000 nM | > 2000 nM | > 2000 nM | > 2000 nM
5 | COC(=O)c1ccc(C[S+]([O-])c2[nH]c3c(Cl)ccc(Cl)c3c(=O)c2C(C)=O)cc1 (stereo not shown) [Compound 91, methyl 4-(((3-acetyl-5,8-dichloro-4-oxo-1,4-dihydroquinolin-2-yl)sulfinyl)methyl)benzoate] | > 2000 nM | > 2000 nM | > 2000 nM | > 2000 nM | > 2000 nM | > 2000 nM | > 2000 nM | 1730 nM | > 2000 nM | > 2000 nM | > 2000 nM | > 2000 nM | > 10000 nM | – | – | –
6 | CSc1c(C(C)=O)c(=O)c2c(Cl)ccc(Br)c2n1S(=O)(=O)c1ccc(Cl)cc1 [Compound 37, 3-acetyl-8-bromo-5-chloro-1-((4-chlorophenyl)sulfonyl)-2-(methylthio)quinolin-4(1H)-one] | > 2000 nM | > 2000 nM | > 2000 nM | > 2000 nM | > 2000 nM | > 2000 nM | > 2000 nM | > 2000 nM | > 2000 nM | > 2000 nM | > 2000 nM | > 2000 nM | > 10000 nM | > 2000 nM | > 2000 nM | > 2000 nM
7 | CC(=O)c1c([S+]([O-])Cc2ccc(C(F)(F)F)nc2C)[nH]c2c(Br)ccc(Cl)c2c1=O (stereo not shown) [Compound 102, 3-acetyl-8-bromo-5-chloro-2-(((2-methyl-6-(trifluoromethyl)pyridin-3-yl)methyl)sulfinyl)quinolin-4(1H)-one] | – | > 2000 nM | 1030 nM | > 2000 nM | 1010 nM | 1020 nM | 1870 nM | > 2000 nM | 940 nM | 1400 nM | 980 nM | > 2000 nM | > 2000 nM | – | – | –
8 | CC(=O)c1c([S+]([O-])Cc2ccc(C#N)s2)[nH]c2c(Br)ccc(Cl)c2c1=O (stereo not shown) [Compound 98, 5-(((3-acetyl-8-bromo-5-chloro-4-oxo-1,4-dihydroquinolin-2-yl)sulfinyl)methyl)thiophene-2-carbonitrile] | – | > 2000 nM | 1320 nM | > 2000 nM | 1240 nM | 1470 nM | > 2000 nM | 730 nM | > 2000 nM | > 2000 nM | 1230 nM | > 2000 nM | > 2000 nM | – | – | –
9 | CSc1[nH]c2c(Br)ccc(Cl)c2c(=O)c1C(C)=O [Compound 2, 3-acetyl-8-bromo-5-chloro-2-(methylthio)quinolin-4(1H)-one] | > 2000 nM | > 2000 nM | > 2000 nM | > 2000 nM | > 2000 nM | > 2000 nM | > 2000 nM | > 2000 nM | > 2000 nM | > 2000 nM | > 2000 nM | > 2000 nM | > 10000 nM | > 2000 nM | > 2000 nM | > 2000 nM
10 | CC(=O)c1c([S+]([O-])Cc2cccc(I)c2)[nH]c2c(Br)ccc(Cl)c2c1=O (stereo not shown) [Compound 48, 3-acetyl-8-bromo-5-chloro-2-((3-iodobenzyl)sulfinyl)quinolin-4(1H)-one] | > 2000 nM | > 2000 nM | > 2000 nM | > 2000 nM | > 2000 nM | > 2000 nM | > 2000 nM | > 2000 nM | > 2000 nM | > 2000 nM | > 2000 nM | > 2000 nM | > 10000 nM | – | – | –
11 | CC(=O)c1c([S+](C)[O-])[nH]c2c(Cl)ccc(Cl)c2c1=O (stereo not shown) [Compound 6, 3-acetyl-5,8-dichloro-2-(methylsulfinyl)quinolin-4(1H)-one] | 1220 nM | 1690 nM | 1420 nM | > 2000 nM | 1260 nM | > 2000 nM | 1650 nM | > 2000 nM | 1690 nM | > 2000 nM | > 2000 nM | > 2000 nM | > 10000 nM | 1460 nM | > 2000 nM | 1440 nM
12 | CC(=O)c1c([S+]([O-])Cc2ccc(-n3cccn3)nc2)[nH]c2c(Br)ccc(Cl)c2c1=O (stereo not shown) [Compound 99, 2-(((6-(1H-pyrazol-1-yl)pyridin-3-yl)methyl)sulfinyl)-3-acetyl-8-bromo-5-chloroquinolin-4(1H)-one] | 800 nM | 1620 nM | 850 nM | 1500 nM | 950 nM | 1000 nM | > 2000 nM | 440 nM | 730 nM | 1250 nM | 840 nM | 1360 nM | > 2000 nM | – | – | –
